Assay results reported in paper PMC8607422, “Development of a novel TLR8 agonist for cancer immunotherapy” (Molecular Biomedicine, 2020).

Assays:
CYP 3A4 = target: T1, CYP 3A4 (Homo sapiens, UniProt P08684); assay: CYP inhibition assay in human liver microsomes; type: in vitro ADME
T1 construct: using human liver microsomes (BD Gentest); tissue BD Gentest; host or cells: human liver microsomes
Experimental: (§1) CYP inhibition assay was conducted to evaluate the inhibitive potential of the compounds on CYP 1A2, 2C9, 2C19, 2D6 and 3A4 using human liver microsomes (BD Gentest). Curve-fitting was performed to calculate IC50 using a Sigmoidal (non-linear) dose-response model using GraphPad Prism (GraphPad Software Inc.).

CYP 2C19 = target: T2, CYP 2C19 (Homo sapiens, UniProt P33261); assay: CYP inhibition assay in human liver microsomes; type: in vitro ADME
T2 construct: using human liver microsomes (BD Gentest); tissue BD Gentest; host or cells: human liver microsomes
Experimental: as §1

CYP 2C9 = target: T3, CYP 2C9 (Homo sapiens, UniProt P11712); assay: CYP inhibition assay in human liver microsomes; type: in vitro ADME
T3 construct: using human liver microsomes (BD Gentest); tissue BD Gentest; host or cells: human liver microsomes
Experimental: as §1

in vivo [1] = assay: in vivo; set-up: species or system Sprague Dawley rats; details: Sprague Dawley, rat
Experimental: (§2) To determine the in vivo pharmacokinetic profiles, the compounds were formulated with 11% captisol and then administered iv, ip, sc and po into Sprague Dawley rats or iv and sc into mice or cynomolgus monkeys, respectively. Blood samples were collected before dosing and 0.083 h, 0.25 h, 0.5 h, 1 h, 2 h, 4 h, 6 h, 8 h, 12 h and 24 h after dosing. Blood samples were collected in tubes containing K2EDTA. Plasma was isolated from the blood samples by centrifugation of the blood samples at 2400 × g for 5 min at 4°C. Plasma samples were measured using LC-MS/MS (Waters ACQUITY UPLC and TQ 6500+) to determine the concentration of compounds. The data was analyzed using WinNonlin 7.0 to calculate the PK parameters such as AUC0-t, AUC0-∞, MRT0-∞, Cmax, Tmax, t1/2 and F.

in vivo [2] = assay: in vivo; set-up: species or system cynomolgus monkeys; details: cynomolgus, cynomolgus monkey, sc, 1 mg/kg
Experimental: as §2

hTLR8 = target: T4, hTLR8 (Homo sapiens, UniProt Q9NR97); assay: HEK-Blue hTLR8 SEAP reporter agonist assay; type: cell-based
T4 construct: host or cells: HEK-Blue hTLR8 (HEK293-derived, per own knowledge)
T4 sequence (Q9NR97 27-1041): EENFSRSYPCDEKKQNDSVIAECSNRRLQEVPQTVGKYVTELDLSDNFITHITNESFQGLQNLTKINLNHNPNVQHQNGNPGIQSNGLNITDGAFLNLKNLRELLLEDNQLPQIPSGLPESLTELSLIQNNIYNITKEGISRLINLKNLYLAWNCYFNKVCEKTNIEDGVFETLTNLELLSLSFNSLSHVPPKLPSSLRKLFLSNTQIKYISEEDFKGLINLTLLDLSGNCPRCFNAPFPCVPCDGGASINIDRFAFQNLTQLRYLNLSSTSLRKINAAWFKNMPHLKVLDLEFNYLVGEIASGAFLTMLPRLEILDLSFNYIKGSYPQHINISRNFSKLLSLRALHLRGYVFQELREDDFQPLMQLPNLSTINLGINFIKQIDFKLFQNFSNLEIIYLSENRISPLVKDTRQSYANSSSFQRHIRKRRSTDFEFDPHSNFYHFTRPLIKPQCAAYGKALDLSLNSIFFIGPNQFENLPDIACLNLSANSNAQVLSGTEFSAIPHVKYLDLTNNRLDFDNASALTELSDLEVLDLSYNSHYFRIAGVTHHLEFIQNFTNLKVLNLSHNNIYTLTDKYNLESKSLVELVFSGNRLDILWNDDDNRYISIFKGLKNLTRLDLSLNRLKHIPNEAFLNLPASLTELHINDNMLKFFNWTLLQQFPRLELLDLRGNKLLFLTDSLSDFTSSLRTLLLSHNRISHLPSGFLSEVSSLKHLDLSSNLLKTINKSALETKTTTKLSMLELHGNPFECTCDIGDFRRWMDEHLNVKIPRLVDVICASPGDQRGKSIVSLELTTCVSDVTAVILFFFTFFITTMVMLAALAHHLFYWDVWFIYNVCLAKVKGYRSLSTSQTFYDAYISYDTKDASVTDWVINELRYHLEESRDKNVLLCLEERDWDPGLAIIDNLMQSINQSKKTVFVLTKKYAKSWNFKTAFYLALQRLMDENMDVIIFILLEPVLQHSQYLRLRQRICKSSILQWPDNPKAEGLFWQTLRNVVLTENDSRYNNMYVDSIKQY
Excerpt: HEK-Blue™ hTLR4, 7, 8 and 9 cell lines were purchased from InvivoGen (Hong Kong). The cells express the human TLR gene and NF-κB/AP-1-inducible SEAP (secreted embryonic alkaline phosphatase) reporter gene. SEAP levels produced upon TLR stimulation can be determined by QUANTI-Blue™. In the cell-based assay, the main reagents used were QUANTI-Blue™ (InvivoGen) and ATPlite 1 Step (Perkin Elmer). The main instruments used were the microplate reader SpectraMax 340PC (Molecular Device) and Envision (Perkin Elmer). […] The compounds were in 10 mM stock solution in DMSO and stored at − 20°C. […] DMSO was used as the negative control. […] The cells were cultured and treated with the compounds at 37°C, 5%CO2 for 24 h. After 24 h of incubation, 20 μl of the supernatant of each well was added to 180 μl of QUANTI-Blue™. The plates were incubated at 37°C for 1.5 h. After 1.5 h of incubation, the optical density was measured using the spectrophotometer at 650 nm in the microplate reader of SpectraMax 340PC. The cell viability of each well was determined using ATPlite 1 Step following the manufacturer’s instruction. The luminescence signal in each well of plates was measured in the microplate reader of Envision.

T1 sequence (P08684 whole entry): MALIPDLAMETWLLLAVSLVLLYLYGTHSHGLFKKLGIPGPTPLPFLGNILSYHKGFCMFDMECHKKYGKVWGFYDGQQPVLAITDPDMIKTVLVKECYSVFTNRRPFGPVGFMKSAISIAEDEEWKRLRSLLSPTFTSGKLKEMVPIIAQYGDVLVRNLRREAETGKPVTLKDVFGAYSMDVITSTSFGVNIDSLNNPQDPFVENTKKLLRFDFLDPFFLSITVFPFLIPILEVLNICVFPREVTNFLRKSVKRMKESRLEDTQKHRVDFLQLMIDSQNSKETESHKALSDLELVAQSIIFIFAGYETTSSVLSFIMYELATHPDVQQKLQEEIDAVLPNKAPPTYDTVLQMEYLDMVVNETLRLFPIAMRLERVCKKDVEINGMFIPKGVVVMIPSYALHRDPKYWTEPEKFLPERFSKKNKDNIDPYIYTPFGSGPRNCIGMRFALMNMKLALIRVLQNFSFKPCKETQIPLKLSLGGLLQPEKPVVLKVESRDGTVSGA
T2 sequence (P33261 whole entry): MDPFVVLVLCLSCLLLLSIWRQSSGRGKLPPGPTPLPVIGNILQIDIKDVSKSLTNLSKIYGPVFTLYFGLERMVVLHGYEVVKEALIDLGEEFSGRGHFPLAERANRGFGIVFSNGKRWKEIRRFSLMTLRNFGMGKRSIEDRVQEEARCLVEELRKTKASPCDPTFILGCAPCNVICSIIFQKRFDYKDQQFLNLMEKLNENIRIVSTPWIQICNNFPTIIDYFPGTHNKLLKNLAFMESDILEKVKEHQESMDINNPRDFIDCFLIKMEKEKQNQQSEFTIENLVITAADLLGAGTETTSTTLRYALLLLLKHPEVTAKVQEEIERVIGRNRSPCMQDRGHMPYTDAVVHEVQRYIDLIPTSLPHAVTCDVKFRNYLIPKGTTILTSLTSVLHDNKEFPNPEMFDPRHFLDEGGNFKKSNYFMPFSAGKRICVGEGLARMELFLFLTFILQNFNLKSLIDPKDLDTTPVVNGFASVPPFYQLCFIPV
T3 sequence (P11712 whole entry): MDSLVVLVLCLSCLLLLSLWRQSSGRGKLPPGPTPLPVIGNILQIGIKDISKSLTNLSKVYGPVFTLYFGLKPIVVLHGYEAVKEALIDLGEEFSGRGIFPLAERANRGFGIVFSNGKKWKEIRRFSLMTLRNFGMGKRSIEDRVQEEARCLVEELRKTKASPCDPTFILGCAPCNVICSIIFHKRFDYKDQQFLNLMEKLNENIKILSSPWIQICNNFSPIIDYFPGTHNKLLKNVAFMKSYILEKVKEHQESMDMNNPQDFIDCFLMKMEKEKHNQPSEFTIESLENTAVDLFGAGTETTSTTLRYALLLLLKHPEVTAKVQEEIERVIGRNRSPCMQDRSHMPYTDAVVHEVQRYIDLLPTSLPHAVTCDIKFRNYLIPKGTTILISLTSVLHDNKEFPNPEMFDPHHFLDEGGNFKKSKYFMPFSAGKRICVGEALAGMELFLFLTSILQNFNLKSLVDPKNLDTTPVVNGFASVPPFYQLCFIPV

IC50 (CYP 3A4): > 10 µM
IC50 (CYP 2C19): > 10 µM
IC50 (CYP 2C9): > 10 µM
bioavailability (in vivo [1]): 57.4%
Vd (in vivo [1]; iv, 2.5 mg/kg): 18.6 L/kg
clearance (in vivo [1]; iv, 2.5 mg/kg): 45.5 mL/min/kg
AUC(0-inf) (in vivo [1]; sc, 10 mg/kg): 2130 ng·h/mL
AUC(0-t) (in vivo [1]; sc, 10 mg/kg): 2130 ng·h/mL
Cmax (in vivo [1]; sc, 10 mg/kg): 720 ng/mL
Tmax (in vivo [1]; sc, 10 mg/kg): 1.17 h
half-life (in vivo [1]; sc, 10 mg/kg): 0.92 h
AUC(0-inf) (in vivo [2]): 270 ng·h/mL
AUC(0-t) (in vivo [2]): 270 ng·h/mL
Cmax (in vivo [2]): 80 ng/mL
MRT inf (in vivo [2]): 2.95 h
Tmax (in vivo [2]): 2 h
half-life (in vivo [2]): 1.43 h
EC50 (hTLR8; HEK-Blue hTLR8 cells, 24 h, SEAP, read-out: EC50 in hTLR8 agonist activity (TLR8 cell EC50)): 0.109 µM
TLR8 selectivity (hTLR8; TLR8 over other TLR cell EC50): 182 fold
SMILES: CCCN(CCC)C(=O)C1=Cc2ccc(-c3ccc(C(=O)N4CCCC4)cc3)cc2N=C(N)C1 [Motolimod, motolimod]
